From PubChem BioAssay (NCI)
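Values below derive from 48-hour exposures of cells grown in 96-well plates, with endpoints linearly interpolated between the two concentrations bracketing the appropriate inhibition level. The concentration for 50% growth inhibition is given as GI50. Definition used: TGI = concentration required for complete inhibition of growth.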

What was measured:
Assay in all cases: NCI anticancer screen, dose series, 48 h
[1] = system: A498 renal
[2] = system: A549 NSCLC
[3] = system: ACHN renal
[4] = system: BT-549 breast
[5] = system: CAKI-1 renal
[6] = system: CCRF-CEM leukemia
[7] = system: COLO 205 colon
[8] = system: DU-145 prostate
[9] = system: EKVX NSCLC
[10] = system: HCC-2998 colon
[11] = system: HCT-116 colon
[12] = system: HCT-15 colon
[13] = system: HL-60(TB) leukemia
[14] = system: HOP-92 NSCLC
[15] = system: HS 578T breast
[16] = system: HT29 colon
[17] = system: IGROV1 ovarian
[18] = system: K-562 leukemia
[19] = system: KM12 colon
[20] = system: M14 melanoma
[21] = system: MALME-3M melanoma
[22] = system: MCF7 breast
[23] = system: MDA-MB-231 breast
[24] = system: MDA-MB-435
[25] = system: MDA-N
[26] = system: NCI-H226 lung
[27] = system: NCI-H23 lung
[28] = system: NCI-H460 lung
[29] = system: NCI-H522 lung
[30] = system: NCI/ADR-RES ovarian
[31] = system: OVCAR-3 ovarian
[32] = system: OVCAR-4 ovarian
[33] = system: OVCAR-5 ovarian
[34] = system: OVCAR-8 ovarian
[35] = system: PC-3 prostate
[36] = system: RPMI-8226 leukemia
[37] = system: RXF 393 renal
[38] = system: SF-268 CNS
[39] = system: SF-295 CNS
[40] = system: SF-539 CNS
[41] = system: SK-MEL-2 melanoma
[42] = system: SK-MEL-28 melanoma
[43] = system: SK-MEL-5 melanoma
[44] = system: SK-OV-3 ovarian
[45] = system: SN12C renal
[46] = system: SNB-19 CNS
[47] = system: SNB-75 CNS
[48] = system: SR leukemia
[49] = system: SW-620 colon
[50] = system: T-47D breast
[51] = system: U251 CNS
[52] = system: UACC-257 melanoma
[53] = system: UACC-62 melanoma
[54] = system: UO-31 renal
[55] = system: DLD-1 colon
[56] = system: DMS 114 small cell lung
[57] = system: DMS 273 small cell lung
[58] = system: HOP-18 NSCLC
[59] = system: LOX IMVI melanoma
[60] = system: M19-MEL melanoma
[61] = system: SNB-78 CNS
[62] = system: TK-10 renal
[63] = system: 786-0 renal
[64] = system: HOP-62 NSCLC
[65] = system: MOLT-4 leukemia

For N#CC1(C#N)C(=O)c2ccncc2C1=O, the TGI [1] was greater than 100 µM, the TGI [2] was greater than 100 µM and the TGI [3] was greater than 100 µM. The TGI [4] was greater than 100 µM, the TGI [5] was greater than 100 µM and the TGI [6] was greater than 100 µM. The TGI [7] was greater than 100 µM, the TGI [8] was greater than 100 µM and the TGI [9] was greater than 100 µM. It also gave a TGI [10] greater than 100 µM, a TGI [11] greater than 100 µM and a TGI [12] greater than 100 µM. For the same compound, the TGI [13] was greater than 100 µM, the TGI [14] was greater than 100 µM and the TGI [15] was greater than 100 µM. For the same compound, the TGI [16] was greater than 100 µM, the TGI [17] was greater than 100 µM and the TGI [18] was greater than 100 µM. For the same compound, the TGI [19] was greater than 100 µM, the TGI [20] was greater than 100 µM and the TGI [21] was greater than 100 µM. It also gave a TGI [22] greater than 100 µM, a TGI [23] greater than 100 µM and a TGI [24] greater than 100 µM. The TGI [25] was greater than 100 µM, the TGI [26] was greater than 100 µM and the TGI [27] was greater than 100 µM. For the same compound, the TGI [28] was greater than 100 µM, the TGI [29] was greater than 100 µM and the TGI [30] was greater than 100 µM. For the same compound, the TGI [31] was greater than 100 µM, the TGI [32] was greater than 100 µM and the TGI [33] was greater than 100 µM. For the same compound, the TGI [34] was greater than 100 µM, the TGI [35] was greater than 100 µM and the TGI [36] was greater than 100 µM. It also gave a TGI [37] greater than 100 µM, a TGI [38] greater than 100 µM and a TGI [39] greater than 100 µM. It also gave a TGI [40] greater than 100 µM, a TGI [41] greater than 100 µM and a TGI [42] greater than 100 µM. It also gave a TGI [43] greater than 100 µM, a TGI [44] greater than 100 µM and a TGI [45] greater than 100 µM. The TGI [46] was greater than 100 µM, the TGI [47] was greater than 100 µM and the TGI [48] was greater than 100 µM. For the same compound, the TGI [49] was greater than 100 µM, the TGI [50] was greater than 100 µM and the TGI [51] was greater than 100 µM. The TGI [52] was greater than 100 µM, the TGI [53] was greater than 100 µM and the TGI [54] was greater than 100 µM.

In the case of N#C[S-].[Ce+3].c1ccc(-c2ccccn2)nc1.c1ccc(-c2ccccn2)nc1.c1ccc(-c2ccccn2)nc1, the GI50 [2] is reported as 24.8 µM, the TGI [2] is reported as greater than 100 µM and the GI50 [5] is reported as 10.8 µM. It also gave a TGI [5] of 91.3 µM, a GI50 [7] of 33 µM and a TGI [7] greater than 100 µM. It also gave a GI50 [55] of 5.26 µM, a TGI [55] greater than 100 µM and a GI50 [56] of 23.9 µM. The TGI [56] was 78.8 µM, the GI50 [57] was 11 µM and the TGI [57] was 33.9 µM. It also gave a GI50 [9] of 8.61 µM, a TGI [9] greater than 100 µM and a GI50 [10] of 18.3 µM. The TGI [10] was greater than 100 µM, the GI50 [11] was 30.5 µM and the TGI [11] was greater than 100 µM. For the same compound, the GI50 [12] was 5.18 µM, the TGI [12] was greater than 100 µM and the GI50 [58] was 4.33 µM. The TGI [58] was 46.8 µM, the GI50 [16] was 10.6 µM and the TGI [16] was greater than 100 µM. The GI50 [17] was 24.5 µM, the TGI [17] was 69 µM and the GI50 [19] was 38 µM. For the same compound, the TGI [19] was greater than 100 µM, the GI50 [59] was 4.2 µM and the TGI [59] was 63.7 µM. It also gave a GI50 [20] of 6.24 µM, a TGI [20] of 24.7 µM and a GI50 [60] of 15.4 µM. For the same compound, the TGI [60] was 65.8 µM, the GI50 [21] was 23 µM and the TGI [21] was 60.7 µM. The GI50 [26] was 18 µM, the TGI [26] was 63.1 µM and the GI50 [27] was 26.9 µM. It also gave a TGI [27] of 97.3 µM, a GI50 [28] of 13.1 µM and a TGI [28] greater than 100 µM. The GI50 [31] was 43.1 µM, the TGI [31] was greater than 100 µM and the GI50 [32] was 13.2 µM. For the same compound, the TGI [32] was greater than 100 µM, the GI50 [33] was 6.15 µM and the TGI [33] was 42.9 µM. The GI50 [34] was 13.5 µM, the TGI [34] was greater than 100 µM and the GI50 [37] was 22.7 µM. The TGI [37] was 98.4 µM, the GI50 [39] was 4.72 µM and the TGI [39] was 49 µM. For the same compound, the GI50 [40] was 27.3 µM, the TGI [40] was greater than 100 µM and the GI50 [41] was 25.4 µM. It also gave a TGI [41] of 63.1 µM, a GI50 [42] of 15.3 µM and a TGI [42] greater than 100 µM. It also gave a GI50 [43] of 3.78 µM, a TGI [43] of 20.4 µM and a GI50 [44] of 27 µM. The TGI [44] was 60.7 µM, the GI50 [45] was 12.8 µM and the TGI [45] was greater than 100 µM. It also gave a GI50 [46] of 45.6 µM, a TGI [46] greater than 100 µM and a GI50 [47] of 15.2 µM. It also gave a TGI [47] greater than 100 µM, a GI50 [61] of 58.3 µM and a TGI [61] greater than 100 µM. For the same compound, the GI50 [48] was 25.7 µM, the TGI [48] was greater than 100 µM and the GI50 [49] was 38.9 µM. It also gave a TGI [49] greater than 100 µM, a GI50 [62] of 11 µM and a TGI [62] of 97.6 µM. It also gave a GI50 [51] of 13.3 µM, a TGI [51] greater than 100 µM and a GI50 [52] of 21.4 µM. It also gave a TGI [52] of 64.1 µM, a GI50 [53] of 20.6 µM and a TGI [53] of 55.2 µM. For the same compound, the GI50 [54] was 4.46 µM and the TGI [54] was 28.7 µM.

COc1ccc2[nH]c3c(c2c1)CCc1c(OC)cccc1-3 gave a TGI [63] greater than 100 µM, a TGI [1] greater than 100 µM and a TGI [2] greater than 100 µM. For the same compound, the TGI [3] was greater than 100 µM, the TGI [4] was greater than 100 µM and the TGI [5] was greater than 100 µM. It also gave a TGI [6] greater than 100 µM, a TGI [7] greater than 100 µM and a TGI [8] greater than 100 µM. It also gave a TGI [9] greater than 100 µM, a TGI [10] greater than 100 µM and a TGI [11] greater than 100 µM. The TGI [12] was greater than 100 µM, the TGI [64] was greater than 100 µM and the TGI [14] was greater than 100 µM. It also gave a TGI [15] greater than 100 µM, a TGI [16] greater than 100 µM and a TGI [17] greater than 100 µM. For the same compound, the TGI [18] was greater than 100 µM, the TGI [19] was greater than 100 µM and the TGI [59] was greater than 100 µM. The TGI [20] was greater than 100 µM, the TGI [21] was greater than 100 µM and the TGI [22] was greater than 100 µM. For the same compound, the TGI [23] was greater than 100 µM, the TGI [24] was greater than 100 µM and the TGI [25] was greater than 100 µM. The TGI [65] was greater than 100 µM, the TGI [26] was greater than 100 µM and the TGI [27] was greater than 100 µM. For the same compound, the TGI [28] was greater than 100 µM, the TGI [29] was greater than 100 µM and the TGI [30] was greater than 100 µM. For the same compound, the TGI [31] was greater than 100 µM, the TGI [32] was greater than 100 µM and the TGI [33] was greater than 100 µM. For the same compound, the TGI [34] was greater than 100 µM, the TGI [35] was greater than 100 µM and the TGI [36] was greater than 100 µM. It also gave a TGI [38] greater than 100 µM, a TGI [39] greater than 100 µM and a TGI [41] greater than 100 µM. It also gave a TGI [42] greater than 100 µM, a TGI [43] greater than 100 µM and a TGI [44] greater than 100 µM. It also gave a TGI [45] greater than 100 µM, a TGI [46] greater than 100 µM and a TGI [47] greater than 100 µM. For the same compound, the TGI [48] was greater than 100 µM, the TGI [49] was greater than 100 µM and the TGI [50] was greater than 100 µM. The TGI [62] was greater than 100 µM, the TGI [51] was greater than 100 µM and the TGI [52] was greater than 100 µM. The TGI [53] was greater than 100 µM and the TGI [54] was greater than 100 µM.
